Measured values taken from patent US20030236301A1, “Liposomal delivery of vitamin E based compounds” (priority 2001, published 2003).
“And” between values parts separate entries of the source, which are not always exact repeats. Equal entries are not always repeated. “Also recorded” adds a separate entry of the source.

Tests used:
[1] = after thirty minutes, intramuscular delivery; cited from earlier work
[2] = system: 66 c1.4 GFP murine mammary tumor cells; assay: Lung and lymph node metastases of 66 c1.4-GFP tumors in Balb/c mice; type: in vivo
Description: Metastastic lesions in the five lung lobes were counted visually at time of sacrifice. Fluorescent green micro-metastatic cancer cell colonies in the left lung lobe and lymph nodes were counted using a Nikon fluorescence microscope (TE-200) with a 20×objective (200× magnification) and Image-Pro Plus (version 4.1; Media Cybernetics, Silver Spring, Md.) software associated with the microscope. Fluorescent lesions were separated into three size grouping: <5 μm, 5-10 μm and >10 μm.
At sacrifice, lungs were taken, examined visually for metastatic lesions and frozen for analyses of micrometastases by fluorescence.
Use of a Nikon fluorescence microscope and Image-Pro Plus software permitted measurement of green fluorescing micrometastases into three size groupings of <5 μm, 5-10 μm and >10 μm.
At sacrifice, the left lung lobe of each mouse of flash frozen and saves for detection of GFP expressing micrometatstic lesions via fluorescent microscopy.

[3] = system: 66 c1.4-GFP cells; assay: Apoptosis by morphological evaluation of DAPI-stained nuclei; conditions: three days; for nuclear morphology of DAPI stained cells: 10 μg/ml
Description: Briefly, 1×10^5 cells/well in 12-well plates were cultured overnight to permit attachment. […] After treatment, floating cells plus scraped-released adherent cells were pelleted by centrifugation for 5 min at 350×g, washed one time with phosphate buffered saline (PBS; 137 mM NaCl, 2.7 mM KCL, 10.4 mM Na2HPO4, 10.5 mM KH2PO4; pH 7.2), and stained with 2 μg/ml of 4′,6-diamidino-2-phenylindole dihydrochloride (DAPI, Boehringer Mannheim, Indianapolis, Ind.) in 100% methanol for 15 min at 37° C.
Cells were viewed at 400× magnification with a Zeiss ICM 405 fluorescent microscope using a 487701 filter. […] Data are reported as percentage of apoptotic cells per cell population, i.e., number apoptotic cells/total number of cells counted. Three different microscopic fields were examined and 200 cells counted at each location for a minimum of 600 cells counted per slide. Apoptotic data are presented as mean±S.D. for three independently conducted experiments.

[4] = system: 66 c1.4 GFP murine mammary tumor cells; assay: Tumor growth of 66 c1.4-GFP mammary tumor cells in Balb/c mice (tumor volume); conditions: for inhibition of tumor growth: Example 18: liposomal formulation by aerosol; for reduction of mean tumor volume vs aerosol control: Example 25: liposomal α-TEA/aerosol
Description: 66 c1.4-GFP cells were harvested by trypsinization, centrifuged, resuspended in McCoy's media, containing no supplements at a density of 2×10^5/100 μl. Mice were injected in the inguinal area at a point equal distance between the 4th and 5th nipples on the right side using a 23 gauge needle.
50 mice were assigned (10 per group) to aerosol treatment, aerosol control, oral treatment, oral control, or to the no treatment group so that the average tumor volume for all groups were closely matched. […] Tumors were measured using calipers every other day, and volumes were calculated using the formula: volume (mm^3) [width (mm)^2×length (mm)]/2. Body weights were determined weekly.
Balb/c mice were injected with 200,000 66 c1.4 GFP cells subcutaneous in the mammary fat pad area between the 4th and 5th nipple on the right side of the body.
Mice are injected with 200,000 66 c1.4 GFP murine mammary tumor cells as described on day 0. Treatments are initiated on day 9 when tumors reached 1-3 mm in size. Aerosol treatments of α-TEA liposomes (5 mg α-TEA/mouse) are administered daily for 16 days (FIG. 8). Data represent the mean+/−Standard Error (SE), N=10 mice for control and treatment groups.
Balb/c mice were injected s.c. with 2×10^5 66 c1.4-GFP cells in the inguinal area between the 4th and 5th nipple on the right side of the body. When tumors reached 2×2-4×4 mm (9 days after tumor injection), mice were placed into 5 groups ((Group 1: untreated control, Group 2: liposome/aerosol control, Group 3: liposomal α-TEA aerosol treatment, Group 4: peanut oil/gavage control, Group 5: α-TEA in peanut oil/gavage treatment) of 10 mice/group) such that the mean tumor volume of each group was closely matched. Daily treatments were initiated on day 9 after tumor injection.
Balb/c mice were injected with 200,000 66 c1.4 GFP cells subcutaneous in the mammary fat pad area between the 4th and 5th nipple on the right side of the body. […] Animals were treated with α-TEA in liposome, vitamin E succinate in liposome, or control liposome alone via aerosol, 7 days per week, for 21 days. Animals were given 75 mg compound via nebulization per day such that each animal received 36 μg compound per day.
The size of the tumors, 9-21 days after injection of 200,000 66 c1.4 GFP cells between the 4th and 5th nipple on the right side of each mouse, is determined. Treatments are initiated on day 9 after tumor inoculation. Each group consists of n=10+/−SE. Gavage Treatment=Treatments of 5 mg of α-TEA in ethanol and peanut oil (0.1 ml volume) are administered daily starting on day 9 after tumor inoculation and continuing through day 21. Gavage Control=Mice received peanut oil and ethanol alone (0.1 ml volume)/daily, starting on day 9 after tumor inoculation and continuing through day 21. Data (tumor size) are depicted as the mean+/−standard error for days 9, 11, 13, 15, 17, 19, and 21.
Balb/c mice were injected with 200,000 66 c1.4 GFP cells subcutaneous in the mammary fat pad area between the 4th and 5th nipple on the right side of the body. […] Animals were treated with α-TEA in liposome vitamin E succinate in liposome, or control liposome alone via oral gavage, 2 times per day, 7 days per week, for 21 days. Animals were given a total of 6 mg compound per day.

[5] = system: Poly (ADP-Ribose) Polymerase (PARP) cleavage in 66 c1.4-GFP cells; assay: Western immunoblot detection of PARP cleavage fragment; type: cell-based, mouse; conditions: 48 hours
Description: Poly (ADP-Ribose) Polymerase cleavage was analyzed as an alternate method for detecting apoptosis. 66 c1.4-GFP cells were treated as described above for the DAPI assay. Following the PBS wash, cells were suspended in lysis buffer (1×PBS, 1% Nonidet P-40, 0.5% sodium deoxycholate, 0.1% sodium dodecyl sulfate (SDS), 1 μg/ml leupeptin, 1 μg/ml aprotinin, 1 mM dithiothreitol (DTT), 2 mM sodium orthovanadate, 10 μg/ml phenylmethylsulfonyl fluoride (PMSF)) for 30 min at 4° C., vortexed, and supernatants collected by centrifugation at 15,000×g for 20 min. Protein concentrations were determined using the Bio-Rad (Bradford) protein assay (Bio-Rad Laboratories, Hercules, Calif.), and samples (100 μg/lane) resolved on 7.5% SDS-polyacrylamide gels electrophoresed under reducing conditions.
Proteins were electroblotted onto a nitrocellulose membrane ([…] Optitran BA-S-supported nitrocellulose; Schleicher and Schuell, Keene, N.H.). After transfer, membranes were blocked with blocking buffer [25 mM Tris-HCl (pH 8.0), 125 mM NaCl, 0.5% Tween-20, and 5% non-fat dry milk] for 45 min at room temperature. Immunoblotting was performed using 1 μg of primary rabbit anti-human Poly (ADP-Ribose) Polymerase antibody [PARP (H-250), Santa Cruz Biotechnology, Santa Cruz, Calif.], and horseradish peroxidase-conjugated goat anti-rabbit immunoglobulin was used as the secondary antibody (Jackson Immunoresearch Laboratory, West Grove, Pa.) at a 1:3,000 dilution. Horseradish peroxidase-labeled bands from washed blots were detected by enhanced chemiluminescence (Pierce, Rockford, Ill.) and autoradiography (Kodak BioMax film; Rochester, N.Y.).

[6] = system: MDA-MB-435 GFP FL cells; assay: Tumor growth of MDA-MB-435 GFP FL breast cancer cells in nude mice; type: in vivo, Nu/Nu athymic nude mice; conditions: for reduction of tumor growth: Example 32: liposome gavage, 8 mg per day
Description: Animals were given a total of 8 mg compound per day. […] Alpha-TEA liposome gavage reduced tumor growth by 68, 75, 78, 79 and 79% on days 27, 29, 31, 33, and 35, respectively (FIG. 15).
Animals were […] 3 ppm methylselenocysteine (MSC) in water, α-TEA in liposome via aerosol, or gavaged 10 mg/kg b.w. trans-resveratrol (t-RES) in first 1:1. EtOH:physiological saline, and starting at day 24, 6.5% EtOH and 93.5% Neobee oil. A combination group was treated with each of the above three compounds, and a control group was treated with aerosolized liposome. 100 μl water, and 50 μl of the t-Res solvent. Animals were treated seven days a week, for 35+ days.

[7] = system: A2780 cisplatin-sensitive cell line; assay: Apoptosis in A2780 ovarian cancer cells in vitro; type: cell-based, human; conditions: treated in culture
[8] = AeroTech II nebulizer; geometric standard deviation 2.04
Description: Aerosol was administered to mice as previously described (17).

[9] = Aerosol characteristics: estimated α-TEA deposited in respiratory tract (HPLC, All Glass Impinger); set-up: species or system mouse; conditions: liposomal aerosol, 15 min, estimated deposited fraction 30%
Description: HPLC analyses were conducted on α-TEA liposomes recovered from aerosol in the All Glass Impinger (Ace Glass Co., Vineland, N.J.). The delivered dosage=concentration (μg/L)×mouse minute volume (1-min/kg)×duration of delivery (min)×estimated deposited fraction (30%; 17).

[10] = Body weight and long term safety in Balb/c mice; type: in vivo
Description: Body weights were determined weekly.
Nine days after tumor inoculation, treatments groups are initiated: Aerosol Treatment (TX)=aerosol delivery of α-TEA liposome (5 mg/mouse)/daily through day 23. Aerosol Control=Aerosol delivery of liposome composition only daily through day 23. Gavage treatment=gavage administration of α-TEA at 5 mg/mouse in ethanol/peanut oil daily through day 23. Gavage control=gavage administration of ethanol/peanut oil only through day 23. Mice were weighed at the initiation of treatment (day 9) and thereafter on days 13, 16, 20, and 23 (FIG. 6). Data are presented as the mean+/−standard deviation.

[11] = Serum and tissue levels of α-TEA after liposomal aerosol (HPLC); type: in vivo, mice
Description: Eight mice are treated via pulmonary aerosol delivery with 40 mg of α-TEA (5 mg/mouse) in 6 ml liposomes. The mice inhaled the aerosol over a period of 30 minutes until delivery was complete. Mice are sacrificed 0, 2, 6, or 24 hours after the treatment ended. Serum and tissue levels of α-TEA are determined by HPLC analyses (FIG. 7).

[12] = system: cp-70 human ovarian cancer cells; assay: Apoptosis in cp-70 ovarian cancer cells in vitro; type: cell-based; conditions: treated in culture
[13] = system: 66 c1.4-GFP cells; assay: Colony-forming assay; conditions: 10 days
Description: 66 c1.4-GFP cells were seeded at 600 cells per 35×10 mm tissue culture plate (Nunclon, Rochester, N.Y.) and allowed to adhere over night at 37° C. […] Treatments were left on the cells for 10 days without change of media. After 10 days, media were removed and plates were washed with PBS three times. Cells were stained for 30 min with 1% methylene blue in PBS and colonies >0.5 mm manually counted.

[14] = Example 31: liposomal formulation via gavage, 6 mg per day
[15] = Example 18: liposomal preparation delivered by aerosol
[16] = 75 mg in nebulizer/day, day 15 of treatment
[17] = 75 mg in nebulizer/day, day 17 of treatment
[18] = Example 33: liposomal aerosol, α-TEA 5 mg/d, 9NC 2 μg/d in nebulizer, listed as Lip/α-TEA
[19] = liposomal aerosol, at sacrifice

SMILES: CC[C@@]1(O)C(=O)OCc2c1cc1n(c2=O)Cc2cc3c([N+](=O)[O-])cccc3nc2-1 [9-nitrocamptothecin, reference compound]
- Levels of 9-nitrocamptothecin in the brain [1]: 0
- Inhibition (%) Metastases Lymphnode ([2]; Example 33: liposomal aerosol, α-TEA 5 mg/d, 9NC 2 μg/d in nebulizer, listed as Lip/9NC): 60%

SMILES: Cc1c(C)c2c(c(C)c1OC(=O)CCC(=O)O)CC[C@@](C)(CCC[C@H](C)CCC[C@H](C)CCCC(C)C)O2 [vitamin E succinate, RRR-α-tocopheryl succinate, reference compound]
- apoptosis (percentage of apoptotic cells) ([3]; 2.5 μg/ml): 3%
- apoptosis (percentage of apoptotic cells) ([3]; 5 μg/ml): 5%
- nuclear morphology of DAPI stained cells [3]: exhibited condensation and fragmented DNA
- reduction of tumor growth ([4]; Example 26: liposome aerosol, 75 mg in nebulizer/day, day 17): 76%
- effect on tumor growth ([4]; Example 30: liposome gavage, 6 mg per day, 21 days): did not reduce tumor growth
- effect on lung metastasis [2, 14]: no effect on lung metastasis
- effect on lymph node micrometastatic lesions (FIG. 14B) [2, 14]: not effective

SMILES: Cc1c(O)cc2c(c1C)O[C@](C)(CCC[C@H](C)CCC[C@H](C)CCCC(C)C)CC2 [RRR-γ tocopherol, RRR-γ-tocopherol]
- effect on tumor growth [4, 15]: enhanced tumor growth
- tumor volume compared with control mice [4, 15]: significantly higher

SMILES: CC(=O)Oc1c(C)c(C)c2c(c1C)CCC(C)(CCCC(C)CCCC(C)CCCC(C)C)O2 (racemic) [dl-α tocopherol acetate, dl-α-tocopherol acetate]
- inhibition of tumor growth [4, 16]: 29%
- inhibition of tumor growth [4, 17]: 57%

SMILES: Cc1c(C)c2c(c(C)c1OCC(=O)O)CC[C@@](C)(CCC[C@H](C)CCC[C@H](C)CCCC(C)C)O2 [α-TEA, 2,5,7,8-tetramethyl-(2R-(4R,8R,12-trimethyltridecyl)chroman-6-yloxy) Acetic Acid]
- apoptosis (percentage of apoptotic cells) ([3]; 2.5 μg/ml): 5%
- apoptosis (percentage of apoptotic cells) ([3]; 5 μg/ml): 6%
- nuclear morphology of DAPI stained cells [3]: exhibited condensation and fragmented DNA
- PARP cleavage (84 kDa fragment) ([5]; 5 μg/ml): only intact PARP protein was detected
- PARP cleavage (84 kDa fragment) ([5]; 10 μg/ml): evident
- PARP cleavage (84 kDa fragment) ([5]; 20 μg/ml): evident
- reduction of tumor growth ([6]; day 27): 68%
- reduction of tumor growth ([6]; day 29): 75%
- reduction of tumor growth ([6]; day 31): 78%
- reduction of tumor growth ([6]; day 33): 79%
- reduction of tumor growth ([6]; day 35): 79%
- decrease of tumor volume from the control ([6]; Example 35: day 35): 47.8%
- induction of apoptosis [7]: undergo apoptosis
- mass median aerodynamic diameter of liposome aerosol [8]: 2.01 μm
- α-TEA deposited in the respiratory tract of each mouse each day [9]: approximately 36 μg and ~36 μg
- reduction of mean tumor volume vs aerosol control ([4]; day 13 of treatment): 50%
- reduction of mean tumor volume vs aerosol control ([4]; day 17 of treatment): 61%
- reduction of tumor growth ([4]; Example 26: liposome aerosol, 75 mg in nebulizer/day, day 21): 67%
- tumor weights vs gavage control ([4]; Example 27: gavage, 5 mg in ethanol and peanut oil daily, days 9-21): no significant differences
- mean tumor volume vs gavage control ([4]; Example 28: gavage, 5 mg/day/mouse EtoH/peanut oil formulation): did not differ
- reduction of tumor growth ([4]; Example 30: liposome gavage, 6 mg per day, day 15): 85%
- reduction of tumor growth ([4]; Example 30: liposome gavage, 6 mg per day, day 17): 85%
- reduction of tumor growth ([4]; Example 30: liposome gavage, 6 mg per day, day 21): 70%
- Inhibition (%) Tumor Growth [4, 18]: 65%
- Inhibition (%) Tumor Growth ([4]; Liposomal, Gavage, 3 mg/2× d): 70%
- long term adverse effects ([10]; non-tumor bearing mice, aerosol or gavage for 17 days, kept eleven months): did not show any adverse effects
- body weight vs control groups ([10]; tumor-bearing mice, liposome aerosol or gavage in ethanol/peanut oil, 5 mg/mouse daily): no significant weight differences; also recorded: No differences in mean body weights
- lymph node micrometastatic lesions (average) [2, 14]: 3.1±0.8
- Inhibition (%) Metastases Lung [2, 18]: 71%
- Inhibition (%) Metastases Lymphnode [2, 18]: 94%
- Inhibition (%) Metastases Lung ([2]; Liposomal, Aerosol, 5 mg/d, vs aerosol control): 81%
- Inhibition (%) Metastases Lung ([2]; Liposomal, Gavage, 3 mg/2× d): 59%
- Inhibition (%) Metastases Lymphnode ([2]; Liposomal, Gavage, 3 mg/2× d): 56%
- No. Animals/Group with Visible Lung Metastases [2, 19]: 0/10
- No. Visible Lung Tumor Foci/Animal [2, 19]: No visible tumors
- No. Visible Lung Tumor Foci/Animal ([2]; liposomal aerosol, at sacrifice, listed as Aer./Liposome/α-TEA): 0
- serum and tissue presence of α-TEA ([11]; liposomal aerosol 5 mg/mouse over 30 minutes, 0 hours after treatment ended): found only in the stomach tissue
- serum and tissue presence of α-TEA ([11]; liposomal aerosol 5 mg/mouse, 2 hours after completion of treatment): present in the serum and stomach
- serum and tissue presence of α-TEA ([11]; liposomal aerosol 5 mg/mouse, 6 hours after completion of treatment): present in the liver and stomach
- serum and tissue presence of α-TEA ([11]; liposomal aerosol 5 mg/mouse, 24 hours after completion of treatment): present in the liver and stomach
- induction of apoptosis [12]: undergo apoptosis
- decrease of colony formation compared to EtOH control ([13]; 1.25 μg/ml): 30%
- colony formation ([13]; 5 μg/ml): No colonies formed
- colony formation ([13]; 10 μg/ml): No colonies formed

SMILES: Oc1ccc(/C=C/c2cc(O)cc(O)c2)cc1 [t-RES, trans-resveratrol, reference compound]
- increase of tumor volume from the control ([6]; Example 35: day 35): 61.2%

SMILES: Cc1c(C)c2c(c(C)c1O)CC[C@@](C)(CCC[C@H](C)CCC[C@H](C)CCCC(C)C)O2 [RRR-α tocopherol, RRR-α-tocopherol]
- effect on tumor growth [4, 15]: enhanced tumor growth
- tumor volume compared with control mice [4, 15]: not significantly greater

SMILES: CC(C)=CCC/C(C)=C/CC/C(C)=C/CC[C@]1(C)CCc2c(C)c(O)c(C)c(C)c2O1 [RRR-α-tocotrienol]
- inhibition of tumor growth [4, 16]: 34%
- inhibition of tumor growth [4, 17]: 27%

SMILES: Cc1cc(O)cc2c1O[C@](C)(CCC[C@H](C)CCC[C@H](C)CCCC(C)C)CC2 [RRR-delta tocopherol, RRR-delta-tocopherol]
- inhibition of tumor growth [4, 16]: 25%
- inhibition of tumor growth [4, 17]: 40%
